Assay results published in US10814010B2, “FOXC2 inhibitor and methods of use thereof” (The Board of Regents of The University of Texas System, priority 2018, dated 2020).

Experiments:
[1] = biological target: T1, DNA binding domain (DBD) of FOXC2 (Homo sapiens, UniProt Q99958); test: ELISA-like binding assay, immobilized DNA binding domain of FOXC2; conditions: biotinylated compound
T1 construct: His6 (N, cleaved yes); MBP (N, cleaved yes); made in house; host or cells: E. coli BL21(DE3)-RIPL
T1 sequence (Q99958 60-163): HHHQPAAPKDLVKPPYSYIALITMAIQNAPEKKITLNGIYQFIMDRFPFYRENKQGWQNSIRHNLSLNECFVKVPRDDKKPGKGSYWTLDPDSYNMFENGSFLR
Protocol: The binding affinity of MC-1-F2 to full-length FOXC2 was determined using an ELISA-like binding assay. In this assay, varying concentrations of biotinylated MC-1-F2 or biotinylated MC-C (control; FIG. 12) were incubated in the wells with immobilized recombinant full-length FOXC2 or the DNA binding domain (DBD) of FOXC2 (FIG. 2A). After washing off unbound ligand, the wells were incubated with streptavidin-conjugated Qdot655, followed by fluorescence measurement of the wells using a plate reader. […] This is important for the specificity of MC-1-F2 to FOXC2 as several forkhead transcription factors share a very similar DNA-binding domain.
Clear bottom, black wall, 96 well plate (Corning) was coated with 1 μg/mL of full length FOXC2 or DNA binding domain (DBD) of FOXC2 protein in sensitizing buffer (0.621 g NaHCO3, 0.275 g Na2CO3 in 100 mL of water pH=9.5) overnight at 4° C. Wells were washed 3 times with 200 μL of wash buffer (lx PBS with 0.05% Tween-20). Wells were blocked with blocking buffer (1% BSA in 1×PBS with 0.05% Tween-20) for 1 hour at room temperature. 50 μL of serial dilutions of biotinylated compound in blocking buffer were added to each well and incubated for 1 hour at room temperature. Followed was the addition of […] of 20 nM of strepavidin-Qdot655 in blocking buffer for 1 hour at room temperature. […] Fluorescence was measured using a plate reader (Ex. 495, Em. 655).

MDA-MB-231 cells [2] = test: Soft-agar colony forming assay, MDA-MB-231; format: cell-based; conditions: MDA-MB-231, soft agar, 20 μM
Protocol: It was hypothesized that the specific binding of MC-1-F2 can lead to its specific cellular activity against cancer cells with high FOXC2 expression. This hypothesis was tested by evaluating MC-1-F2's cellular activity on cell lines with different FOXC2 expression levels: MCF-7, BT549, and MDA-MB-231. […] However, further studies are still underway. The specificity in cellular activity of MC-1-F2 was further evaluated in the form of a soft-agar colony forming assay to determine if MC-1-F2 was able to inhibit in vitro tumorigenicity of cancer cells in a FOXC2 expression-dependent manner. […] Further testing is underway in various breast cancer cell lines with different FOXC2 expression levels.
Soft-agar colony-formation assay was performed in 6-well plates. 5×10^3 cells were re-suspended into 1.5 mL 0.3% agarose-DMEM mixture, and seeded onto the 0.5% agarose-DMEM base layer. FBS-supplemented DMEM medium (0.2 mL) containing the compound of determined concentrations was added on the top and changed every 3 days. After 10 days incubation in 37° C. incubator with 5% CO2, 0.5 mL of 0.005% crystal violet solution was added to the top of the agarose gel and incubated overnight. The total number of colonies per well that were >100 microns in size when viewed under a simple microscope were counted. Light microscopy images were captured under 20× magnification.

MDA-MB-231 cells [3] = test: Wound healing assay, MDA-MB-231; format: cell-based; conditions: MDA-MB-231, 20 μM, 24 hours
Protocol: Reversal of EMT mediated by MC-1-F2 was anticipated to lead to the inhibition of metastatic capability of cancer cells. […] A wound healing assay was carried out to examine the migratory capabilities of cells in closing a “wound” or gap over a period of 24 hours. […] Inhibition of migratory capabilities of cells only measures one aspect of EMT progression. EMT is marked also by increased invasiveness of cancer cells. Therefore, the invasive property of MDA-MB-231 cells treated with MC-1-F2 was examined (FIGS. 6B&C).
3×10^5 cells of MDA-MB-231 in 70 μL of DMEM media were seeded on an ibidi μ-dish (Ibidi) and incubated for 24 hours. The insert was removed carefully with tweezers, to create the “wound” and the dish rinsed with DPBS. Followed by the addition of DMEM media with applicable drug. Images were taken at various time points and monitoring of the migration of cells into the “gap” was recorded at several time points.

DU145 cells = test: MTT cell viability assay, DU145; format: cell-based; conditions: Homo sapiens, DU-145, 24 hour treatment
Protocol: In order to determine the EC50 of MC-1-F2, an MTT assay on cell viability was performed in both DU145 and PC3.
Cell viability was assessed by MTT (3-(4,5-Dimethylthiazol-2-yl)-2,5-Diphenyltetrazolium Bromide) assay 5,000 cells were seeded on a 96-well cell culture plate and were incubated for at least 24 hours prior to drug treatment. The MTT reagent (Fisher Scientific) was added to the culture medium 3 hours prior to the end of compound incubation. The reaction took place in the 37° C. incubator with 5% CO2 for 3 hours. Cell culture medium was then removed from the wells. Cells with the insoluble purple formazan were lysed with DMSO for 10 mins at room temperature, 200 μL per well. Absorbance was read at 570 nm using a plate reader.

N=C(N)NCCCCNc1nc(Nc2ccc(Oc3ccccc3)cc2)nc(N2CCN(c3nc(N)nc(Nc4ccc(N5CCOCC5)cc4)n3)CC2)n1 [MC-1-F2]
Kd [1]: > 100 µM
colony forming activity (MDA-MB-231 cells [2]): strong inhibition of colony forming activity
migratory activity / wound closure (MDA-MB-231 cells [3]): inhibition of the migratory activity
EC50 (DU145 cells): 48.1 µM
